Experimental data as given in US20040068002A1, “4-aminobenzopyran derivatives” (priority 2001, published 2004).

Tests used:
[1] = system: atrial effective refractory period; assay: Effects on the effective refractory period (atrial), anesthetized beagles with vagal nerve stimulation; assay type: in vivo; details: 0.3 mg/kg intravenously, from 5 min after administration, after minus before administration
Experimental: (§1) Effects on the Effective Refractory Period
(§2) Beagles were anesthetized with pentobarbital sodium and, under artificially ventilated condition, thoracotomy was conducted along the median and the pericardium was cut open to expose the heart. ECG was recorded using bipolar electrodes attached to the surface of the right atrial free wall, right atrial auricle, and right ventricular free wall. The vagal nerves were stimulated using an electric stimulation device via Nichrome wires inserted into the bilateral vagal nerves in the neck. The conditions for electric stimulation to the vagal nerves were set such that the RR intervals on ECG were prolonged by about 100 msec compared with those before the stimulation was started.
(§3) Electric current twice as strong as the threshold was used for the electric stimulation to the heart, and premature stimulation S2 was applied after giving 10 serial S1 stimulations at the basic stimulation cyclelength. […]
(§4) For evaluation of drug effects, the atrial and ventricular effective refractory periods were determined before drug administration, then each compound was administrated intravenously at the dose of 0.3 mg/kg, and the atrial and ventricular effective refractory periods were determined from 5 min after the administration. […]

[2] = system: ventricular effective refractory period; assay: Effects on the effective refractory period (ventricular), anesthetized beagles with vagal nerve stimulation; assay type: in vivo; details: 0.3 mg/kg intravenously, from 5 min after administration, after minus before administration
Experimental: as §1, §2, §3, §4

CCCCCN[C@H]1c2cc(N)c([N+](=O)[O-])cc2OC(C)(C)[C@@H]1O (relative stereo) [Synthesis Example 9, Trans-6-amino-3,4-dihydro-2,2-dimethyl-7-nitro-4-n-pentylamino-2H-1-benzopyran-3-ol]
prolongation time in effective refractory period (msec) Atrium [1]: 27 ms | prolongation time in effective refractory period (msec) ventricle [2]: 3 ms

CCCCCN[C@H]1c2cc(NC(C)=O)c([N+](=O)[O-])cc2OC(C)(C)[C@@H]1O (relative stereo) [Synthesis Example 1, (3R*,4S*)-6-acetylamino-3,4-dihydro-2,2-dimethyl-7-nitro-4-n-pentylamino-2H-1-benzopyran-3-ol]
prolongation time in effective refractory period (msec) Atrium [1]: 40 ms | prolongation time in effective refractory period (msec) ventricle [2]: 5 ms
